Experimental findings from patent US20090131431A1, “Pyrazolo[3,4-b]pyridine compounds, and their use as a PDE4 inhibitors” (priority 2005, published 2009) are described below.

The experiment concerns the target T1, PDE4B (human recombinant) (Homo sapiens, UniProt Q07343).
T1 construct: made in house
In words: Inhibition of PDE4B activity: SPA and/or Fluorescence Polarisation (FP) assay. Type of experiment: biochemical. Conditions: one reading (n=1) or average of 2 or more readings, read-out: PDE4B pIC50 (±about 0.5) (converted). Summed up:
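Human recombinant PDE4B activity measured by SPA with [3H]cAMP at about 10 nM, 1 h at ambient temperature, enzyme set for ≤20% substrate hydrolysis, or by IMAP FP with Fl-cAMP at about 40 nM, 40 min at ambient temperature under linear conditions. Inhibition curves fitted; values reported as pIC50.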
(Fluorescence polarisation rises when a labelled molecule tumbles more slowly, as on binding a larger partner.)

Each structure is given as a SMILES string.

T1 sequence (Q07343 1-564 isoform Q07343-2): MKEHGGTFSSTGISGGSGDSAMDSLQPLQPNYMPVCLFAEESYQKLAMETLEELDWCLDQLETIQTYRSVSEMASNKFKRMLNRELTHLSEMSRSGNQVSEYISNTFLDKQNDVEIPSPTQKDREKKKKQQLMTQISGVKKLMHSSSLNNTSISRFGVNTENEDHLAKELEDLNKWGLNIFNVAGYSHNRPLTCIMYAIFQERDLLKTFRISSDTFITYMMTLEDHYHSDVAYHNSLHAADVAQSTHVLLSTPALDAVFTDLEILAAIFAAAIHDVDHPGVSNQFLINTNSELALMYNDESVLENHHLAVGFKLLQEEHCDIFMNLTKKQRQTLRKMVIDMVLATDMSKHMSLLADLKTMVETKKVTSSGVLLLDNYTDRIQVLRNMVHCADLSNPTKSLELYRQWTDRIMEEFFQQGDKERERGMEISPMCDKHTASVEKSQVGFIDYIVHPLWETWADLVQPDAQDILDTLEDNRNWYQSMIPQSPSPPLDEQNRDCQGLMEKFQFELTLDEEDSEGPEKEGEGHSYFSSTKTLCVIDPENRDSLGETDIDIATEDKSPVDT

With `CCc1nc2c(cnn2CC)c(NC2CCOCC2)c1CNC(=O)C1CCN(S(C)(=O)=O)CC1` [Example 341, N-{[1,6-diethyl-4-(tetrahydro-2H-pyran-4-ylamino)-1H-pyrazolo[3,4-b]pyridin-5-yl]methyl}-1-(methylsulfonyl)-4-piperidinecarboxamide], the IC50 is 0.126 to 1 nM.

As for `CCc1nc2c(cnn2CC)c(NC2CCOCC2)c1CNC(=O)c1cnc(C)nc1` [Example 331, N-{[1,6-diethyl-4-(tetrahydro-2H-pyran-4-ylamino)-1H-pyrazolo[3,4-b]pyridin-5-yl]methyl}-2-methyl-5-pyrimidinecarboxamide], the IC50 is 0.126 to 1 nM.

As to `CCn1ncc2c(NC3CCOCC3)c(CNC(=O)c3ccc4c(c3)CCC4)c(C)nc21` [Example 284, N-{[1-ethyl-6-methyl-4-(tetrahydro-2H-pyran-4-ylamino)-1H-pyrazolo[3,4-b]pyridin-5-yl]methyl}-2,3-dihydro-1H-indene-5-carboxamide], the IC50 is 0.126 to 1 nM.

Take `CCc1nc2c(cnn2CC)c(NC2CCOCC2)c1CNC(=O)c1ccc2ccccc2c1` [Example 191, N-{[1,6-diethyl-4-(tetrahydro-2H-pyran-4-ylamino)-1H-pyrazolo[3,4-b]pyridin-5-yl]methyl}-2-naphthalenecarboxamide]: the IC50 was 0.126 to 1 nM.

With `CCn1ncc2c(NC3CCOCC3)c(CNC(=O)c3ccsc3)c(C)nc21` [Example 227, N-{[1-ethyl-6-methyl-4-(tetrahydro-2H-pyran-4-ylamino)-1H-pyrazolo[3,4-b]pyridin-5-yl]methyl}-3-thiophenecarboxamide], the IC50 was 0.126 to 1 nM.

With `CCc1nc2c(cnn2CC)c(NC2CCOCC2)c1CNC(=O)c1ccc(C(C)C)cc1` [Example 193, N-{[1,6-diethyl-4-(tetrahydro-2H-pyran-4-ylamino)-1H-pyrazolo[3,4-b]pyridin-5-yl]methyl}-4-(1-methylethyl)benzamide], the IC50 is 0.01 to 0.1 nM.

For `CCc1nc2c(cnn2CC)c(NC2CCOCC2)c1CNC(=O)c1ccc(C(=O)NC)cc1` [Example 255, N-{[1,6-diethyl-4-(tetrahydro-2H-pyran-4-ylamino)-1H-pyrazolo[3,4-b]pyridin-5-yl]methyl}-N′-methyl-1,4-benzenedicarboxamide], the IC50 was 0.01 to 0.1 nM.

As to `CCc1nc2c(cnn2CC)c(NC2CCOCC2)c1CNC(=O)c1ccc(N2CCCCCCC2)cc1` [Example 187, N-{[1,6-diethyl-4-(tetrahydro-2H-pyran-4-ylamino)-1H-pyrazolo[3,4-b]pyridin-5-yl]methyl}-4-(hexahydro-1(2H)-azocinyl)benzamide], the IC50 is 0.126 to 1 nM.

Turning to `CCc1nc2c(cnn2CC)c(NC2CCN(C(N)=O)CC2)c1CNC(=O)c1ccc(C)cc1O` [Example 245, 4-{[1,6-diethyl-5-({[(2-hydroxy-4-methylphenyl)carbonyl]amino}methyl)-1H-pyrazolo[3,4-b]pyridin-4-yl]amino}-1-piperidinecarboxamide], the IC50 was 0.01 to 0.1 nM.

Turning to `CCc1nc2c(cnn2CC)c(NC2CCOCC2)c1CN1Cc2occc2C1=O` [Example 198, 5-{[1,6-diethyl-4-(tetrahydro-2H-pyran-4-ylamino)-1H-pyrazolo[3,4-b]pyridin-5-yl]methyl}-5,6-dihydro-4H-furo[2,3-c]pyrrol-4-one], the IC50 was 0.126 to 1 nM.

For `CCn1ncc2c(NC3CCOCC3)c(CN3Cc4occc4C3=O)c(C)nc21` [Example 301, 5-{[1-ethyl-6-methyl-4-(tetrahydro-2H-pyran-4-ylamino)-1H-pyrazolo[3,4-b]pyridin-5-yl]methyl}-5,6-dihydro-4H-furo[2,3-c]pyrrol-4-one], the IC50 was 0.126 to 1 nM.

Turning to `CCn1ncc2c(NC3CCN(C(N)=O)CC3)c(CNC(=O)c3ccc(C(C)(C)C)cc3)c(C)nc21` [Example 262, 4-({5-[({[4-(1,1-dimethylethyl)phenyl]carbonyl}amino)methyl]-1-ethyl-6-methyl-1H-pyrazolo[3,4-b]pyridin-4-yl}amino)-1-piperidinecarboxamide], the IC50 is 0.01 to 0.1 nM.

For `CCn1ncc2c(NC3CCOCC3)c(CNC(=O)c3cccc4c3OCC4)c(C)nc21` [Example 220, N-{[1-ethyl-6-methyl-4-(tetrahydro-2H-pyran-4-ylamino)-1H-pyrazolo[3,4-b]pyridin-5-yl]methyl}-2,3-dihydro-1-benzofuran-7-carboxamide], the IC50 is 0.01 to 0.1 nM.

Turning to `CCc1nc2c(cnn2CC)c(NC2CCOCC2)c1CNC(=O)c1cncnc1` [Example 151, N-{[1,6-diethyl-4-(tetrahydro-2H-pyran-4-ylamino)-1H-pyrazolo[3,4-b]pyridin-5-yl]methyl}-5-pyrimidinecarboxamide], the IC50 is 0.126 to 1 nM.

On to `CCn1ncc2c(NC3CCOCC3)c(CNC(=O)c3cccc(NC(C)=O)c3)c(C)nc21` [Example 280, 3-(acetylamino)-N-{[1-ethyl-6-methyl-4-(tetrahydro-2H-pyran-4-ylamino)-1H-pyrazolo[3,4-b]pyridin-5-yl]methyl}benzamide], for which the IC50 is 0.01 to 0.1 nM.

On to `CCn1ncc2c(NC3CCOCC3)c(CNC(=O)c3coc(C)n3)c(C)nc21` [Example 318, N-{[1-ethyl-6-methyl-4-(tetrahydro-2H-pyran-4-ylamino)-1H-pyrazolo[3,4-b]pyridin-5-yl]methyl}-2-methyl-1,3-oxazole-4-carboxamide], for which the IC50 was 0.126 to 1 nM.

As for `CCn1ncc2c(NC3CCOCC3)c(CNC(=O)c3ccc(F)cc3)c(C)nc21` [Example 313, N-{[1-ethyl-6-methyl-4-(tetrahydro-2H-pyran-4-ylamino)-1H-pyrazolo[3,4-b]pyridin-5-yl]methyl}-4-fluorobenzamide], the IC50 is 0.126 to 1 nM.

For `CCn1ncc2c(NC3CCOCC3)c(CNC(=O)c3ccc(NC(C)=O)cc3)c(C)nc21` [Example 93, 4-(acetylamino)-N-{[1-ethyl-6-methyl-4-(tetrahydro-2H-pyran-4-ylamino)-1H-pyrazolo[3,4-b]pyridin-5-yl]methyl}benzamide], the IC50 was 0.126 to 1 nM.

Regarding `CCc1nc2c(cnn2CC)c(NC2CCOCC2)c1CNS(=O)(=O)C(C)C` [Example 173, N-{[1,6-diethyl-4-(tetrahydro-2H-pyran-4-ylamino)-1H-pyrazolo[3,4-b]pyridin-5-yl]methyl}-2-propanesulfonamide], the IC50 was 0.126 to 1 nM.

With `CCc1nc2c(cnn2CC)c(NC2CCOCC2)c1CNC(=O)c1ccc(N2CCCC2=O)cc1` [Example 178, N-{[1,6-diethyl-4-(tetrahydro-2H-pyran-4-ylamino)-1H-pyrazolo[3,4-b]pyridin-5-yl]methyl}-4-(2-oxo-1-pyrrolidinyl)benzamide], the IC50 was 0.01 to 0.1 nM.

With `CCc1nc2c(cnn2CC)c(NC2CCOCC2)c1CNC(=O)c1cccc2c1OCC2` [Example 161, N-{[1,6-diethyl-4-(tetrahydro-2H-pyran-4-ylamino)-1H-pyrazolo[3,4-b]pyridin-5-yl]methyl}-2,3-dihydro-1-benzofuran-7-carboxamide], the IC50 was 0.01 to 0.1 nM.

`CCc1nc2c(cnn2CC)c(NC2CCOCC2)c1CNC(=O)c1ccsc1` [Example 235, N-{[1,6-diethyl-4-(tetrahydro-2H-pyran-4-ylamino)-1H-pyrazolo[3,4-b]pyridin-5-yl]methyl}-3-thiophenecarboxamide]: the IC50 was 0.01 to 0.1 nM.

With `CCOc1ccccc1C(=O)NCc1c(C)nc2c(cnn2CC)c1NC1CCOCC1` [Example 219, N-{[1-ethyl-6-methyl-4-(tetrahydro-2H-pyran-4-ylamino)-1H-pyrazolo[3,4-b]pyridin-5-yl]methyl}-2-(ethyloxy)benzamide], the IC50 was 0.126 to 1 nM.

As for `CCc1nc2c(cnn2CC)c(NC2CCOCC2)c1CNC(=O)c1nc2ccc(Cl)cc2nc1OC` [Example 174, 6-chloro-N-{[1,6-diethyl-4-(tetrahydro-2H-pyran-4-ylamino)-1H-pyrazolo[3,4-b]pyridin-5-yl]methyl}-3-(methyloxy)-2-quinoxalinecarboxamide], the IC50 is 0.01 to 0.1 nM.

Take `CCc1nc2c(cnn2CC)c(NC2CCOCC2)c1CNC(=O)c1cnc(C)s1` [Example 311, N-{[1,6-diethyl-4-(tetrahydro-2H-pyran-4-ylamino)-1H-pyrazolo[3,4-b]pyridin-5-yl]methyl}-2-methyl-1,3-thiazole-5-carboxamide]: the IC50 is 0.01 to 0.1 nM.

Consider `CCc1nc2c(cnn2CC)c(NC2CCOCC2)c1CNC(=O)c1ccc(C(F)(F)F)nc1` [Example 326, N-{[1,6-diethyl-4-(tetrahydro-2H-pyran-4-ylamino)-1H-pyrazolo[3,4-b]pyridin-5-yl]methyl}-6-(trifluoromethyl)-3-pyridinecarboxamide], for which the IC50 is 0.126 to 1 nM.

For `CCc1nc2c(cnn2CC)c(NC2CCOCC2)c1CNC(=O)c1cc(S(=O)(=O)c2ccccc2)ccc1OC` [Example 179, N-{[1,6-diethyl-4-(tetrahydro-2H-pyran-4-ylamino)-1H-pyrazolo[3,4-b]pyridin-5-yl]methyl}-2-(methyloxy)-5-(phenylsulfonyl)benzamide], the IC50 was 0.01 to 0.1 nM.

With `CCc1nc2c(cnn2CC)c(NC2CCOCC2)c1CNC(=O)c1csc(C)n1` [Example 309, N-{[1,6-diethyl-4-(tetrahydro-2H-pyran-4-ylamino)-1H-pyrazolo[3,4-b]pyridin-5-yl]methyl}-2-methyl-1,3-thiazole-4-carboxamide], the IC50 is 0.126 to 1 nM.

Regarding `CCn1ncc2c(NC3CCOCC3)c(CNC(=O)c3ccc(N4CCCC4=O)cc3)c(C)nc21` [Example 288, N-{[1-ethyl-6-methyl-4-(tetrahydro-2H-pyran-4-ylamino)-1H-pyrazolo[3,4-b]pyridin-5-yl]methyl}-4-(2-oxo-1-pyrrolidinyl)benzamide], the IC50 was 0.01 to 0.1 nM.

Take `CCc1nc2c(cnn2CC)c(NC2CCOCC2)c1CNC(=O)c1ccc(NC(C)=O)cc1O` [Example 251, 4-(acetylamino)-N-{[1,6-diethyl-4-(tetrahydro-2H-pyran-4-ylamino)-1H-pyrazolo[3,4-b]pyridin-5-yl]methyl}-2-hydroxybenzamide]: the IC50 is 0.01 to 0.1 nM.
